Measured values as given in patent US20210205413A1 (Nektar Therapeutics, priority 2018, published 2021).
“Also recorded” adds a separate entry of the source.

How the values were obtained:
[1] = molecular target: T1, human IL-2Rβ (Homo sapiens, UniProt P14784); test: Affinity to the IL-2 receptor by surface plasmon resonance; format: binding; details: SPR
T1 sequence (P14784 27-551): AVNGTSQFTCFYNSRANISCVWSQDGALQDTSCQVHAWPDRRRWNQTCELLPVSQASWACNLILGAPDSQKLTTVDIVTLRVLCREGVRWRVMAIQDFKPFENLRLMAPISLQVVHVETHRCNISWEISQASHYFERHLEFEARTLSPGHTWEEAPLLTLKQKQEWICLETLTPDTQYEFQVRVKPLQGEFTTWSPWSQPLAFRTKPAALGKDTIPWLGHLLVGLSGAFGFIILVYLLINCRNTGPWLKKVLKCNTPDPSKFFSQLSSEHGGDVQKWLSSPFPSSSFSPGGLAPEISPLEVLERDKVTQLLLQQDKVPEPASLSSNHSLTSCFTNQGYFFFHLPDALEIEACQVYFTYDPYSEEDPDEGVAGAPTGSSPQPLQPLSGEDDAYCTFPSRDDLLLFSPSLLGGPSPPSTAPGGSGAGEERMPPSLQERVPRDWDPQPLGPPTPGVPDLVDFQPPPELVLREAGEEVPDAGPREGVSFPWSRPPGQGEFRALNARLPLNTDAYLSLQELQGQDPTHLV
Protocol: Impaired IL-2 production and regulatory T cell dysfunctions have been implicated as an immunological mechanism in multiple autoimmune diseases. While low-dose IL-2 can be used to stimulate Tregs for clinical benefit, poor pharmacokinetics necessitates daily delivery, adverse events are dose-limiting, and Treg increases are modest and short-lived. […] The affinity to the IL-2 receptor is assessed by surface plasmon resonance. Activity in human PBMC can be measured by pSTAT5 induction in multiple lymphocyte populations using flow cytometry and time-of-flight mass cytometry (CyToF). In vivo activity after subcutaneous administration in C57BL/6 mice or cynomolgus monkey is measured by changes in lymphocyte numbers and activation by flow cytometry. Ex vivo Treg function is determined by the inhibition of Tcon proliferation by isolated splenic Treg. Efficacy is assessed in a model of systemic lupus erythematosus (SLE) using MRL/MpJ-Faslpr mice. […] In mice, a single administration leads to sustained Treg mobilization for 7-10 days in blood and spleen without Tcon activation, an effect concomitant with induction of Treg activation markers and increased ex vivo suppressive capacity. […] Finally, an RUR20kD-IL-2 composition is efficacious in mouse models of SLE.

[2] = tested on: Tcon proliferation; test: In vitro Treg suppression assay (splenic Tregs of treated mice co-cultured with Tcon); format: cell-based, C57BL/6 mice
Protocol: The objective of this study is to assess the inhibitory function of regulatory T cells. […] Treg and Tcon are co-cultured at a range of ratios from 1:2 to 1:512 for three days. Cellular proliferation is evaluated by ^3H-thymidine incorporation over the final 16 hours of the assay, and the % of proliferating cells relative to plate controls is calculated.
Single-cell isolations are prepared for each spleen, and the resultant splenocyte mixtures are pooled for each dose group at each timepoint. A portion of the pooled sample equivalent to one spleen is aliquoted for immune cell profiling. The remaining splenocyte preparation is utilized for isolation of regulatory T cells (Tregs). […]
In vitro suppression assays are carried out in RPMI 1640 medium supplemented with 10% fetal bovine serum, 2 mM L-glutamine, 1 mM sodium pyruvate, 0.5 μM β-mercaptoethanol, and 1× antibiotic/antimycotic (100 units/mL penicillin, 100 μg/mL streptomycin and 250 ng/mL amphotericin B). […] The suppressive capacity of Tregs is assessed by the addition of Tregs to Tcon at different ratios (Treg:Tcon ratios of […] to 1:512). […] After washing cells free from unincorporated [3H]-thymidine, thymidine uptake is measured as counts-per-minute (CPM) using a microplate scintillation counter (TopCount NXT, Perkin Elmer). […]

[3] = tested on: CD4+FoxP3+CD25bright Tregs; test: Phase I single ascending dose study in healthy volunteers: Tregs in peripheral blood by flow cytometry; format: in vivo, human
Protocol: A double-blind, randomized, placebo-controlled study is conducted to evaluate the safety, tolerability, pharmacokinetics, and pharmacodynamics of single ascending low sub-cutaneous doses of an RUR20kD-IL-2 composition (RUR20kD-IL-2) in healthy volunteers. […] Twelve subjects are randomized to each dose cohort, nine of whom received a single subcutaneous dose of RUR20kD-IL-2 while three received placebo. […] The drug product is supplied in single-use glass vials and stored at 2-8° C. […] Placebo is a commercially available 0.9% sodium chloride solution. A starting dose of 0.3 μg/kg is chosen using the minimally anticipated biological effect level (MABEL) approach and is supported by the no observed adverse effect level (NOAEL) in the most sensitive species from nonclinical toxicology studies.
The primary objective of the study is to evaluate the safety and tolerability of RUR20kD-IL-2 administered as a single subcutaneous dose. […] In a first phase of the study, immune markers are tested pre-dose up to 20 hours post-dose. Specifically, Tregs, CD4^+-T cells, CD8^+-T cells, natural killer (NK) cells, cytokines, soluble CD25, and RNA are tested in RUR20kD-IL-2- and placebo-receiving cohorts. In subsequent phases, the same immune markers are also tested at 4-, 5-, 6-, 7-, 8-, 10-, 12-, 15-, 18-, 20-, 25-, 30-, 40, and 50-days post-dose.

In the case of “(1,3-bis(methoxypoly(ethylene glycol)10kDcarbamoyl)-2-propanoxy)-4-butanamide)interleukin-2) [RUR20kD-IL-2]”, the “affinity for human IL-2Rβ relative to IL-2Ra and IL-2Rαβ complexes” value [1] is reported as “greatly attenuated affinity”, the “duration of increased Treg suppressive activity” value ([2]; Treg:Tcon ratio 1:2) is reported as “maintained for four days” and the “suppressive capacity of Tregs isolated after administration” value ([2]; Tregs isolated 1 and 4 days post dose, vs vehicle) is reported as “greatly increased suppressive capacity”. The “mean increase in numbers of CD4+FoxP3+CD25bright Tregs compared to placebo” value (“mean increase in numbers … to placebo” below) ([3]; single SC 3.0 μg/kg) was 3.0 fold, the “mean increase in numbers of CD4+FoxP3+CD25bright Tregs compared to pre-dose” value (“mean increase in numbers … to pre-dose” for short) ([3]; single SC 3.0 μg/kg) was 3 fold and the “time of peak (maximal) Treg response” value ([3]; single SC 3.0 μg/kg) was 84 h. The “mean increase in numbers … to placebo” value ([3]; single SC 6.0 μg/kg) was 3.5 fold, the “mean increase in numbers … to pre-dose” value ([3]; single SC 6.0 μg/kg) was 3.5 fold and the “mean increase in numbers … to placebo” value ([3]; single SC 9.0 μg/kg) was 4.1 fold. The “mean increase in numbers … to pre-dose” value ([3]; single SC 9.0 μg/kg) was 4.1 fold, the “mean increase in numbers … to placebo” value ([3]; single SC 13.5 μg/kg) was 5.0 fold and the “mean increase in numbers … to pre-dose” value ([3]; single SC 13.5 μg/kg) was 5 fold. The “mean increase in numbers … to pre-dose” value ([3]; single SC 20.0 μg/kg) was 8.1 fold, the “increase in mean peak Treg:CD8 ratio over baseline” value ([3]; single SC 28 μg/kg) was 15 fold and the “mean peak increase in numbers of CD25-bright Tregs above pre-dose values” ([3]; single SC 28 μg/kg) was 17 fold. The “mean peak percentage of CD25bright Tregs” value ([3]; single SC 28.0 μg/kg, increased from 0.5%) was 7.4%, the “numbers of Tregs versus placebo subjects” value ([3]; single SC 0.3 and 1.0 μg/kg) was “no change in the numbers of Tregs; also recorded: No changes in total CD4+ Tregs” and the “total CD4+FoxP3+CD25+ Treg population” value ([3]; single SC 3.0, 6.0, 9.0 and 13.5 μg/kg) was “dose-dependent increase in the total CD4+FoxP3+CD25+ Treg population”. The “doses at which increases in Treg activation markers (ICOS and CTLA4) were observed” value ([3]; single SC dose) was no less than 0.0135 mg/kg, the “time until CD4+FoxP3+CD25bright Treg levels return to baseline” value ([3]; single SC dose, 3.0 μg/kg and above) was 20 to 25 days and the “days at which Treg levels peak” value ([3]; single SC dose, 3.0 to 28.0 μg/kg cohorts) was 10 to 12 days.
